Patent US11752116B2, “Method of viral inhibition” (priority 2013, dated 2023)

Legend:
DENV-2 NS5 / IMPα/β = DENV-2 NS5 / IMPα/β (Dengue virus type 2, UniProt P14340); assay: AlphaScreen binding of His6-NS5 to IMPα/β heterodimer
Description: AlphaScreen®, a luminescent bead-based assay that measures direct protein-protein interactions, was used to examine the binding of 3 nM His6-NS5 to 10 nM IMPα/β (IMPα/β heterodimer containing biotinylated IMPβ1) in the presence of increasing concentrations of 4-HPR, 4-MPR or ATRA (FIG. 1A), or 4-oxo-4-HPR, 4-HPR or 4-MPR (FIG. 1B). Data are the mean±standard deviation (SD) of triplicate wells from a single typical experiment.
(§1) To investigate the specificity of 4-HPR inhibition of NS5-importin association, the binding of 30 nM His6-NS5 to 10 nM IMPα/β, (IMPα/β heterodimer containing biotinylated IMPβ1), 3 nM IMPαΔIBB (biotinylated IMPa with the IMPβ-binding domain removed), or 3 nM biotinylated IMPβ1, in the presence of increasing concentrations of 4-HPR, was investigated.

DENV-2 NS5 / IMPαΔIBB = DENV-2 NS5 / IMPαΔIBB (Dengue virus type 2, UniProt P14340); assay: AlphaScreen binding of His6-NS5 to IMPαΔIBB
Description: as §1

DENV-2 [1] = assay: Delayed addition in DENV-2 infected Huh-7 cells, NS1 RNA by qPCR; assay type: cell-based; details: 7.5 μM added 12 h p.i., at 24 h p.i.
Description: To gain further insight into the mode of action of 4-HPR, the human liver carcinoma cell line, Huh-7 cells were infected with DENV-2 (MOI of 1), followed by delayed addition of drug diluent DMSO (DENV only), 7.5 μM 4-HPR, 7.5 μM 4-MPR or 10 μM NITD008 (a previously described adenosine nucleoside inhibitor), 12 h post infection. Cells were lysed at the indicated times, RNA was extracted by Trizol and analysed by qPCR with fold change in expression of NS1 calculated relative to the untreated control (FIG. 5B). Concurrently, culture medium was collected and viral titres determined by plaque assay (FIG. 5C).

DENV-1 [2] = assay: Cell-based flavivirus immunodetection assay in BHK-21 cells, DENV-1; details: MOI of 0.3, 48 h p.i.
Description: (§2) To investigate this, BHK-21 cells were infected with DENV serotypes 1, 2, 3 or 4 (MOI of 0.3) for 1 h in the presence of 4-HPR or 4-MPR (concentrations as indicated in FIG. 6A). Virus inoculum was removed and fresh media containing the indicated compounds was added. Virus infection rates were determined 48 h p.i. using a cell-based flavivirus immunodetection assay. Briefly, cells were fixed and stained for DENV structural protein, E, followed by addition of Alexa Fluor 488 anti-mouse IgG. Viral antigen quantification was performed using Imagexpress. Data shown are representative of a single experiment

DENV-4 = assay: Cell-based flavivirus immunodetection assay in BHK-21 cells, DENV-4; details: Dengue virus, DENV4, BHK-21, 48 h, read-out: EC50, DENV-4 replication
Description: as §2

DENV-1 [3] = assay: Plaque assay in Huh-7 cells, DENV-1; assay type: cell-based; details: Dengue virus, DENV1, Huh-7, 48 h, read-out: EC50, infectious virus titre DENV 1
Description: (§3) To ensure the antiviral activity of 4-HPR is not cell-line specific Huh-7 cells were also infected with DENV-1, 2, 3 or 4 (MOI of 0.3) in the presence of increasing concentrations of 4-HPR, with infectious virus titres determined by plaque assay at 48 h p.i.

DENV-2 [4] = assay: Plaque assay in Huh-7 cells, DENV-2; assay type: cell-based; details: Dengue virus, DENV2, Huh-7, 48 h, read-out: EC50, infectious virus titre DENV 2
Description: as §3

DENV-1 [5] = assay: ADE-mediated DENV-1 infection of THP-1 cells, plaque assay; assay type: cell-based; details: Dengue virus, DENV1, THP-1, 48 h, read-out: EC50, ADE-mediated DENV-1 infection
Description: In a cell culture model of antibody-dependent enhanced (ADE) DENV infection, THP-1 human monocyte cells infected with DENV-1 in the presence of sub-neutralising levels of a humanized version of the 4G2 antibody, which is cross-reactive with flavivirus envelope proteins (Paradkar et al., 2010 Bio Sci Rep.), show increased virus production compared to cells infected with virus alone. This model mimics the ADE phenomenon thought to occur in patients infected with a second serotype of DENV, which is associated with more severe DENV disease.
Briefly, humanized 4G2 antibody (0.05 μg/ml) was combined with DENV-1 (MOI of 10), and 4-HPR (concentrations as indicated in FIG. 7) in serum-free media, and incubated on ice for 1 h for the immune complex to form. Immune complex inoculums were added to THP-1 cells and incubated for 48 h. Supernatants were collected after 2 days and infectious virus production was quantified by plaque assay.

DENV-1 [6] = assay: ADE-mediated DENV-1 infection of human PBMCs, plaque assay; assay type: cell-based; details: Dengue virus, DENV1, PBMC, MOI of 10, 48 h, read-out: ex vivo EC50, ADE-mediated DENV-1 infection
Description: The antiviral activity of 4-HPR was investigated in the more physiologically relevant human system of peripheral blood mononuclear cells (PBMCs), a major target of DENV infection in humans.
PBMCs were prepared from a healthy donor buffy coat using a Ficoll gradient, prior to ADE-mediated DENV-1 infection (MOI of 10) in the presence of increasing concentrations of 4-HPR or 4-MPR, and infectious virus titres determined by plaque assay 48 h later.

CHIKV = CHIKV infection of HEK293T cells, plaque assay; assay type: cell-based; details: 5 μM, 24 h p.i.
Description: HEK293T cells were treated with 5 μM 4-HPR or 4-MPR for 2 h, then infected with CHIKV for 1 h (MOI of 0.1) in the absence of compound (FIG. 9A). Alternatively, HEK293T cells were infected with CHIKV for 1 h (MOI of 0.1) without pre-treating the cells with compound (FIG. 9B). In both instances, virus inoculums were removed, then fresh medium containing the indicated compound was added (FIG. 9A and FIG. 9B). Infectious virus titres were determined by plaque assay 24 h p.i. Data are the mean+standard deviation of one experiment performed in duplicate wells, represented as plaque forming units per ml (PFU/ml).

[7] = tested on: West Nile virus, Kunjin strain (WNVKUN); assay: West Nile virus (Kunjin strain) infection of Vero cells, plaque assay; assay type: cell-based; details: 10 μM, 4 h incubation of Vero cells at the time of infection
Description: FIG. 9C. Viral titre from a plaque assay conducted from Vero cells infected with West Nile virus (Kunjin strain; WNVKUN) after treatment with 10 μM 4-HPR for 4 h.

PERK pathway = assay: Activation of PERK pathway of the unfolded protein response in DENV-infected cells; assay type: cell-based
[8] = up to 4,000 mg/m^2/day, daily for 28 days, including in children; cited from earlier work

With `CC1=C(/C=C/C(C)=C/C=C/C(C)=C/C(=O)Nc2ccc(O)cc2)C(C)(C)CCC1` [4-HPR, N-(4-hydroxyphenyl) retinamide] the IC50 (DENV-2 NS5 / IMPα/β) was 1200 nM, the “block of association of DENV-2 NS5 with IMPα/β” value (DENV-2 NS5 / IMPα/β; 3 nM His6-NS5, 10 nM IMPα/β, increasing concentrations of compound) was “able to block association” and the IC50 (DENV-2 NS5 / IMPαΔIBB) was 1600 nM. The “reduction in viral RNA levels (NS1 qPCR)” value (DENV-2 [1]) was 1 log, the “EC50, DENV-1 replication” value (DENV-1 [2]) was “low EC50” and the EC50 (DENV-4) was 840 nM. The EC50 (DENV-1 [3]) was 2600 nM, the EC50 (DENV-2 [4]) was 2100 nM and the EC50 (DENV-1 [5]) was 850 nM. For the same compound, the EC50 (DENV-1 [6]) was 810 nM, the “reduction of infectious CHIKV produced” value (CHIKV; HEK293T cells pre-treated 2 h with compound) was ~100% and the “reduction of infectious CHIKV produced” value (CHIKV; HEK293T cells, compound added after infection) was ~95%. The “reduction in infectious virus produced (WNVKUN)” value [7] was 89%, the “activation of PERK pathway within the unfolded protein response” value (PERK pathway) was “induces activation of the pro-apoptotic PERK pathway” and the “toxicity profile in cancer treatment” value [8] was “favourable toxicity profiles”.
